Assay results from patent US9775833B2, “Method for the treatment of NF1- or RAS-associated disorders” (The Trustees of Dartmouth College, priority 2015, dated 2017).
Entries after “also recorded” stand apart in the source; their conditions may differ.

Key:
[1] = test system: yeast model of NF1 deficiency (IRA2, yeast homolog of human NF1); assay: Yeast growth assay, yeast model of NF1 deficiency (OD 600 nm); assay type: cell-based, Saccharomyces cerevisiae; conditions: increasing concentrations, 18 hours
Description: (§1) IRA2 is a yeast homolog of human NF1. Cells were grown in the presence of increasing concentrations of compound 1 for 18 hours. The absorbance (OD 600 nm) was measured as a surrogate marker of cell growth. The assay has been described previously: see Sanchez et al., Mol. Cancer Ther. 2011 Sep.: 10(9):1740-1750.
as §1, with “Y100B” for “compound 1”

control strains = assay: Yeast growth assay, control strains (OD 600 nm); assay type: cell-based, Saccharomyces cerevisiae; conditions: increasing concentrations, 18 hours
Description: as §1
as §1, with “Y100B” for “compound 1”

[2] = test system: NF1-deficient tumor cells (U87-MG); assay: alamarBlue viability/growth assay in U87-MG cells; assay type: cell-based, human
Description: Cells were incubated with drug for 15 minutes-72 h. At the noted times, the drug was removed, cells were rinsed with PBS, and replaced with normal media. At 69 hours, 5 uL of alamarBlue viability assay reagent was added to each well. At 72 h, the fluorescence was measured (Ex/Em 544/590 nm) as a surrogate indicator of viability. All values were normalized to the fluorescence observed in a vehicle (DMSO) control.
Cells were incubated with drug for 3 or 7 days. 3 hours before the end of the experiment, 5 uL of alamarBlue viability assay reagent was added to each well. At the end of each timepoint, the fluorescence was measured (Ex/Em 544/590 nm) as a surrogate indicator of viability. All values were normalized to the fluorescence observed in a vehicle (DMSO) control.
Viability Assay. Cells are cultured on plastic 96-well plates. Cell viability is estimated using metabolism as a surrogate marker via the ALAMARBLUE viability/proliferation assay (AbD Serotec; Kidlington, UK) according to the protocol of the manufacturer. The modification of the ALAMARBLUE reagent to a fluorescent substrate is measured with a fluorimeter, after which fluorescent intensity is normalized as a percentage of the vehicle control. Assays are done in triplicate.
Dose Response Assays (Mammalian Cells). To perform drug sensitivity assays, U87-MG cells were plated to 96-well plates at a concentration of 5000 cells/well. After overnight incubation, medium was removed and replaced with 100 μL of medium containing 0-20 uM Compound 1 and DMSO (to normalize DMSO concentrations). In the case of the beta-mercaptoethanol and N-acetyl cysteine co-treatment assays, cells were preincubated with these compounds or a vehicle control for 2 h before being replaced with Y100+/− N-acetyl cysteine, beta-mercaptoethanol or vehicle. Cells were incubated for the noted time with a final 3-hour incubation in 5% AlamarBlue (Thermo Scientific). The plate was scanned at an Ex/Em of 544/590 nm, and fluorescence was normalized to vehicle control wells. Dose-response curves and IC50s were calculated with the Prism 6 software package (GraphPad, San Diego, Calif., USA) by performing a 4-parameter logistic regression with outlier exclusion analysis.

p62/SQSTM-1 = p62/SQSTM-1 level, western blot and immunofluorescence; assay type: cell-based, human; conditions: U87-MG, 24 h; western blot, immunofluorescent microscopy
Description: U87-MG tumor cells were treated with compound 1 or hydroxychloroquine (an autophagy inhibitor) for 24 h or a cocktail of proteasome inhibitors (bortezomib, BTZ and MG-132) for 2 h. P62 and tubulin levels were determined by western blot.
(§2) U87-MG tumor cells were treated with Y100, hydroxychloroquine (an autophagy inhibitor) or rapamycin (an autophagy inducer) for 24 hours. LC3B-I to LC3-II conversion and tubulin levels were determined by western blot.
Western Blotting. U87-MG cells were plated at a concentration of 500,000 cells per well in a 6-well plate and allowed to adhere overnight. Cells were treated with the noted concentrations and times of controls or compound 1. After treatment, cells were harvested with trypsin, rinsed, and lysed with approximately 75 microliters RIPA buffer with protease and phosphatase inhibitors per 500,000 cells. Protein was quantified with a BCA assay kit (Pierce). 30 micrograms of protein was separated on a 4-15% SDS-PAGE gel (Bio-Rad) by SDS gel electrophoresis. Protein was transferred to a nitrocellulose membrane, blocked with 5% milk in TBST and probed with LC3B (Cell Signaling, 1:1000, overnight), p62/SQSTM-1 (Santa Cruz, 1:1000, 1 h), tubulin (Santa Cruz, 1:10000, 1 h), K63 ubiquitin (Cell Signaling, 1:1000, 1 h), K48 ubiquitin (Cell Signaling, 1:2000, 1 h) in 2% milk in TBST. […]

LC3B-II = assay: LC3B accumulation, western blot and immunofluorescence; assay type: cell-based, human; conditions: U87-MG, 24 hours; western blot, immunofluorescent microscopy
Description: as §2
(§3) Western Blotting. U87-MG cells were plated at a concentration of 500,000 cells per well in a 6-well plate and allowed to adhere overnight. Cells were treated with the noted concentrations and times of controls or compound 1. After treatment, cells were harvested with trypsin, rinsed, and lysed with approximately 75 microliters RIPA buffer with protease and phosphatase inhibitors per 500,000 cells. Protein was quantified with a BCA assay kit (Pierce). 30 micrograms of protein was separated on a 4-15% SDS-PAGE gel (Bio-Rad) by SDS gel electrophoresis. Protein was transferred to a nitrocellulose membrane, blocked with 5% milk in TBST and probed with LC3B (Cell Signaling, 1:1000, overnight), p62/SQSTM-1 (Santa Cruz, 1:1000, 1 h), tubulin (Santa Cruz, 1:10000, 1 h), K63 ubiquitin (Cell Signaling, 1:1000, 1 h), K48 ubiquitin (Cell Signaling, 1:2000, 1 h) in 2% milk in TBST. Secondary labeling was performed with a one hour incubation in 1:20000 anti-rabbit HRP or 1:10000 anti-mouse HRP (Jackson Immunoresearch) diluted in 2% milk in TBST. Film was then exposed to ECL-coated blots (Pierce) and developed using a standard film processor.

[3] = test system: lysine 63 and lysine 48 polyubiquitin linked-proteins; assay: K63/K48 polyubiquitin western blot in U87-MG cells; assay type: cell-based, human; conditions: 24 hours, comparable to HCQ (50 uM, 24 h) or MG132 plus bortezomib cocktail
Description: as §3

[4] = test system: lysine 63 and lysine 48 polyubiquitin linked-proteins; assay: K63/K48 polyubiquitin western blot in U251-MG cells; assay type: cell-based, human; conditions: 24 hours, comparable to HCQ (50 uM, 24 h) or MG132 plus bortezomib cocktail
U87-MG cells [5] = assay: Mitochondrial immunofluorescence (Mitotracker Red / TOMM20) in U87-MG cells; assay type: cell-based, human; conditions: 24 hours, Mitotracker Red and TOMM20
Description: Polarized mitochondria are labeled with Mitotracker Red, while all mitochondria are labeled with an antibody specific to the mitochondrial protein TOMM20.
Immunofluorescence. U87-MG cells were cultured on poly-D-lysine coated coverslips (Neuvitro Corporation) or poly-L-lysine coated coverslips and treated with Compound 1 (Chembridge) for 24 hours. For the last 30 minutes of treatment, cells were labeled with 100 nM Mitotracker Red (Life Technologies). After treatment and labeling, cells were rinsed with PBS. Cells were fixed in 4% methanol-free paraformaldehyde (Electron Microscopy Services) in PBS (Corning) for 10 minutes at room temperature and blocked with immunofluorescence buffer (2% [v/v] goat serum, 0.2% [v/v] Triton X-100 and 0.05% [w/v] sodium azide in PBS) at RT. TOMM20 was labeled using 1:200 rabbit anti-TOM20 (Santa Cruz) at room temperature for one hour, and cells were rinsed 3 times for 5 minutes with PBST. Secondary labeling was performed with 1:600 goat anti-rabbit F(ab′) 2 DyLight 488 at room temperature for 1 hour (Jackson Immunoresearch) diluted in IF buffer. Cells were then rinsed 2 times for five minutes with PBST and then nuclei were labeled with DAPI in PBS for 5 minutes. Coverslips were mounted on glass slides with ProLong Gold (Life Technologies). […]

U251-MG cells = assay: Mitochondrial immunofluorescence (Mitotracker Red / TOMM20) in U251-MG cells; assay type: cell-based, human; conditions: Mitotracker Red and TOMM20
U87-MG cells [6] = assay: MitoSOX Red flow cytometry for mitochondrial superoxide; assay type: cell-based, human; conditions: 24 h of treatment
Description: Flow Cytometry. To determine mitochondrial superoxide levels, 500,000 U87-MG cells/well were plated to a 6-well plate and allowed to adhere overnight. The medium was then replaced with cell culture media containing DMSO or Y100. Cells were treated for 24 hours. 30 minutes before the end of the incubation, 1 micromolar MitoSOX Red was added. At the end of the incubation, cells were rinsed with PBS and trypsinized, and then rinsed two more times. The cells were transferred to flow cytometry tubes and analyzed using a MacsQuant VYB 8-color flow cytometer. MitoSOX Red fluorescence was detected using the Y1-A (PE) channel. 30,000 events per sample were collected. Histograms were generated using the FlowJo flow cytometry analysis software package.

[7] = ROS scavenger co-treated for 72 hours, alamarBlue

SMILES	growth / cell death of NF1-deficient yeast (absorbance OD 600 nm) [1]	growth of control yeast strains (absorbance OD 600 nm) (control strains)	effect on U87-MG cells on co-treatment with N-acetyl cysteine (NAC) [2, 7]	effect on U87-MG cells on co-treatment with β-mercaptoethanol [2, 7]	effect on cell viability/growth on pretreatment and co-treatment with buthionine sulfoximine (BSO) ([2]; U87-MG, 3-day alamarBlue assay)	drug exposure time giving an irreversible effect on cell viability/growth ([2]; U87-MG, drug removed after 15 minutes-72 h, alamarBlue read at 72 h)	autophagy marker p62/SQSTM-1 (P62 accumulation) (p62/SQSTM-1)	LC3B accumulation (LC3B-I to LC3-II conversion) (LC3B-II)	accumulation of lysine 63 and lysine 48 polyubiquitin linked-proteins [3]	accumulation of lysine 63 and lysine 48 polyubiquitin linked-proteins [4]	formation of polarized mitochondrial hotspots (U87-MG cells [5])	formation of polarized mitochondrial hotspots (U251-MG cells)	formation and/or accumulation of mitochondrial superoxide (MitoSOX Red) (U87-MG cells [6])	viability and/or growth of U87 MG cells (alamarBlue) ([2]; incubated with drug for 3 or 7 days)
CCOC(=O)c1ccc2c3c(onc13)-c1ccccc1C2=O [compound 1]	selectively inhibits growth or induces cell death	without affecting the control strains	abrogate the effect of compound 1	abrogate the effect of compound 1	potentiates the effect of compound 1 on cell viability/growth	≤ 15 min	modulates the autophagy marker and ubiquitin binding scaffold protein p62/SQSTM-1; also recorded: induces P62 accumulation	not LC3B accumulation	induces the accumulation of lysine 63 and lysine 48 polyubiquitin linked-proteins	induces the accumulation of lysine 63 and lysine 48 polyubiquitin linked-proteins	induces the formation of polarized mitochondrial hotspots	induces the formation of polarized mitochondrial hotspots	induces the formation and/or accumulation of mitochondrial superoxide	–
COC(=O)c1ccc2c3c(onc13)-c1ccccc1C2=O [compound 2]	selectively inhibits growth or induces cell death	without affecting the control strains	–	–	–	–	–	–	–	–	–	–	–	reduces viability and/or growth
CCN(CCO)CCCC(C)Nc1ccnc2cc(Cl)ccc12 (stereo not drawn) [hydroxychloroquine]	–	–	–	–	–	–	induces P62 accumulation	induces accumulation of the autophagy marker LC3B-II	–	–	–	–	–	–
